Columns and labels:
giant foxtail = assay: Test A pre-/postemergence herbicide test; format: in vivo, Setaria faberii
How it was run: (§1)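 Visual 0–100 ratings (100 = complete control) made about 10 days after treatment, greenhouse-held plants compared with untreated controls. Treatments: postemergence sprays on one- to two-leaf plants (2–10 cm tall) and preemergence directed soil sprays after planting in loam–sand, chemicals formulated in non-phytotoxic solvent containing surfactant.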

crabgrass, large = assay: Test A pre-/postemergence herbicide test; format: in vivo, Digitaria sanguinalis
How it was run: as §1

pigweed = assay: Test A pre-/postemergence herbicide test; format: in vivo, Amaranthus retroflexus
How it was run: as §1

ducksalad [1] = assay: Test B flooded paddy test; format: in vivo, Heteranthera limosa; conditions: 250 g ai/ha, Flood; scale of 0 to 100 where 0 is no effect and 100 is complete control
How it was run: (§2)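 Scored visually 0–100 (0 no effect, 100 complete control) versus controls after 13 to 15 greenhouse days. Treatment: compound added to paddy water kept 3 cm above soil, on 2-leaf-stage plants.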

corn = assay: Test A pre-/postemergence herbicide test; format: in vivo, Zea mays
How it was run: as §1

rice [2] = assay: Test C flooded paddy test; format: in vivo, Oryza sativa; conditions: Flood
How it was run: (§3)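 Visual ratings from 0, no effect, to 100, complete control, were made against untreated controls after 13–15 greenhouse days. Compounds had gone straight into paddy water 3 cm above the soil, kept at that depth, on 2-leaf-stage plants.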

sedge, umbrella [3] = assay: Test C flooded paddy test; format: in vivo, Cyperus difformis; conditions: Flood
How it was run: as §3

sedge, umbrella [4] = assay: Test B flooded paddy test; format: in vivo, Cyperus difformis; conditions: 250 g ai/ha, Flood; scale of 0 to 100 where 0 is no effect and 100 is complete control
How it was run: as §2

morningglory = assay: Test A pre-/postemergence herbicide test; format: in vivo, Ipomoea spp.
How it was run: as §1

barnyardgrass [5] = assay: Test C flooded paddy test; format: in vivo, Echinochloa crus-galli; conditions: Flood
How it was run: as §3

ducksalad [6] = assay: Test C flooded paddy test; format: in vivo, Heteranthera limosa; conditions: Flood
How it was run: as §3

velvetleaf = assay: Test A pre-/postemergence herbicide test; format: in vivo, Abutilon theophrasti
How it was run: as §1

rice [7] = assay: Test B flooded paddy test; format: in vivo, Oryza sativa; conditions: 250 g ai/ha, Flood; scale of 0 to 100 where 0 is no effect and 100 is complete control
How it was run: as §2

barnyardgrass [8] = assay: Test B flooded paddy test; format: in vivo, Echinochloa crus-galli; conditions: 250 g ai/ha, Flood; scale of 0 to 100 where 0 is no effect and 100 is complete control
How it was run: as §2

wheat = assay: Test A pre-/postemergence herbicide test; format: in vivo, Triticum aestivum
How it was run: as §1

barnyardgrass [9] = assay: Test A pre-/postemergence herbicide test; format: in vivo, Echinochloa crus-galli
How it was run: as §1

ragweed = assay: Test A pre-/postemergence herbicide test; format: in vivo, Ambrosia elatior
How it was run: as §1

kochia = assay: Test A pre-/postemergence herbicide test; format: in vivo, Kochia scoparia
How it was run: as §1

blackgrass = assay: Test A postemergence herbicide test; format: in vivo, Alopecurus myosuroides
How it was run: (§4)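 Visual injury rating, 0 (no effect) to 100 (complete control), versus untreated controls ~10 days after treatment. Postemergence spray applied at one- to two-leaf stage, plants 2–10 cm tall, potted in loam soil/sand. Greenhouse-held.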

ryegrass, Italian = assay: Test A pre-/postemergence herbicide test; format: in vivo, Lolium multiflorum
How it was run: as §1

galium = assay: Test A postemergence herbicide test; format: in vivo, Galium aparine
How it was run: as §4

[10] = Postemergence, 125 g ai/ha, 0 to 100 scale, 0 no effect, 100 complete control
[11] = Postemergence, 500 g ai/ha, 0 to 100 scale (0 no effect, 100 complete control)
[12] = Preemergence, 125 g ai/ha, visual rating on 0 to 100 scale (0 no effect, 100 complete control)
[13] = preemergence, 500 g ai/ha, 0 to 100 scale
[14] = 125 g ai/ha, scale of 0 to 100 where 0 is no effect and 100 is complete control, 13 to 15 days
[15] = Postemergence, 125 g ai/ha, 0 to 100 scale, 0 is no effect, 100 is complete control
[16] = Preemergence, 125 g ai/ha, 0 to 100 scale where 0 is no effect and 100 is complete control
[17] = preemergence, 500 g ai/ha, 0 to 100 scale, 0 is no effect and 100 is complete control
[18] = Postemergence, 125 g ai/ha, visual rating on 0 to 100 scale (0 no effect, 100 complete control), approx. 10 days
[19] = 125 g ai/ha, 0 to 100 scale, 0 is no effect, 100 is complete control
[20] = 500 g ai/ha, 0 to 100 scale (0 no effect, 100 complete control)
[21] = 250 g ai/ha, scale of 0 to 100 where 0 is no effect and 100 is complete control, 13 to 15 days

O=C1NCC(c2cccc(Cl)c2)C1C(=O)Nc1ccccc1F (racemic) [Compound 89]
Plant response rating, Foxtail, Giant (giant foxtail; [10]): 60 | Plant response rating, Foxtail, Giant (giant foxtail; [11]): 80 | Foxtail, Giant plant response rating (giant foxtail; [12]): 80 | Plant response rating, Foxtail, Giant (giant foxtail; [13]): 90 | Plant response rating, Crabgrass, Large (crabgrass, large; [10]): 60 | Plant response rating, Crabgrass, Large (crabgrass, large; [11]): 80 | Crabgrass, Large plant response rating (crabgrass, large; [12]): 80 | Plant response rating, Crabgrass, Large (crabgrass, large; [13]): 90 | Plant response rating, Pigweed (pigweed; [10]): 0 | Plant response rating, Pigweed (pigweed; [11]): 20 | Pigweed plant response rating (pigweed; [12]): 0 | Plant response rating, Pigweed (pigweed; [13]): 0 | Plant response rating, Ducksalad (ducksalad [1]): 70 | Plant response rating, Corn (corn; [10]): 0 | Plant response rating, Corn (corn; [11]): 30 | Corn plant response rating (corn; [12]): 0 | Plant response rating, Corn (corn; [13]): 0 | Plant response rating, Rice (rice [2]; [14]): 0 | Plant response rating, Rice (rice [2]; 250 g ai/ha, scale 0 to 100): 0 | Plant response rating, Rice (rice [2]; 500 g ai/ha, scale 0 to 100): 0 | Plant response rating, Rice (rice [2]; 1000 g ai/ha, scale 0 to 100): 0 | Plant response rating, Sedge, Umbrella (sedge, umbrella [3]; [14]): 0 | Plant response rating, Sedge, Umbrella (sedge, umbrella [3]; 250 g ai/ha, scale 0 to 100): 0 | Plant response rating, Sedge, Umbrella (sedge, umbrella [3]; 500 g ai/ha, scale 0 to 100): 0 | Plant response rating, Sedge, Umbrella (sedge, umbrella [3]; 1000 g ai/ha, scale 0 to 100): 0 | Plant response rating, Sedge, Umbrella (sedge, umbrella [4]): 0 | Plant response rating, Morningglory (morningglory; [10]): 0 | Plant response rating, Morningglory (morningglory; [11]): 10 | Morningglory plant response rating (morningglory; [12]): 0 | Plant response rating, Morningglory (morningglory; [13]): 0 | Plant response rating, Barnyardgrass (barnyardgrass [5]; [14]): 20 | Plant response rating, Barnyardgrass (barnyardgrass [5]; 250 g ai/ha, scale 0 to 100): 20 | Plant response rating, Barnyardgrass (barnyardgrass [5]; 500 g ai/ha, scale 0 to 100): 40 | Plant response rating, Barnyardgrass (barnyardgrass [5]; 1000 g ai/ha, scale 0 to 100): 75 | Plant response rating, Ducksalad (ducksalad [6]; [14]): 70 | Plant response rating, Ducksalad (ducksalad [6]; 250 g ai/ha, scale 0 to 100): 85 | Plant response rating, Ducksalad (ducksalad [6]; 500 g ai/ha, scale 0 to 100): 100 | Plant response rating, Ducksalad (ducksalad [6]; 1000 g ai/ha, scale 0 to 100): 100 | Plant response rating, Velvetleaf (velvetleaf; [10]): 0 | Plant response rating, Velvetleaf (velvetleaf; [11]): 0 | Velvetleaf plant response rating (velvetleaf; [12]): 0 | Plant response rating, Velvetleaf (velvetleaf; [13]): 0 | Plant response rating, Rice (rice [7]): 20 | Plant response rating, Barnyardgrass (barnyardgrass [8]): 60 | Plant response rating, Wheat (wheat; [10]): 0 | Plant response rating, Wheat (wheat; [11]): 20 | Wheat plant response rating (wheat; [12]): 0 | Plant response rating, Wheat (wheat; [13]): 10 | Plant response rating, Barnyardgrass (barnyardgrass [9]; [10]): 60 | Plant response rating, Barnyardgrass (barnyardgrass [9]; [11]): 80 | Barnyardgrass plant response rating (barnyardgrass [9]; [12]): 60 | Plant response rating, Barnyardgrass (barnyardgrass [9]; preemergence, 500 g ai/ha, 0 to 100 scale (0 no effect, 100 complete control)): 80

CN1CC(c2ccc(F)cc2)C(C(=O)Nc2ccccc2F)C1=O (stereo not drawn) [Compound 270]
Plant response rating, Foxtail, Giant (giant foxtail; [15]): 60 | Plant response rating, Foxtail, Giant (giant foxtail; [11]): 90 | Plant response rating, Foxtail, Giant (giant foxtail; [16]): 80 | Plant response rating, Foxtail, Giant (giant foxtail; [17]): 90 | Plant response rating, Ragweed (ragweed; [11]): 0 | Plant response rating, Ragweed (ragweed; [16]): 0 | Plant response rating, Ragweed (ragweed; [17]): 20 | Plant response rating, Kochia (kochia; [15]): 0 | Plant response rating, Kochia (kochia; [11]): 30 | Plant response rating, Kochia (kochia; [16]): 0 | Plant response rating, Kochia (kochia; [17]): 80 | Plant response rating, Pigweed (pigweed; [18]): 40 | Plant response rating, Pigweed (pigweed; [11]): 0 | Plant response rating, Pigweed (pigweed; [16]): 0 | Plant response rating, Pigweed (pigweed; [17]): 20 | Plant response rating, Blackgrass (blackgrass; [19]): 0 | Plant response rating, Blackgrass (blackgrass; [20]): 20 | Plant response rating, Corn (corn; [15]): 0 | Plant response rating, Corn (corn; [11]): 30 | Plant response rating, Rice (rice [2]; [14]): 0 | Plant response rating, Rice (rice [2]; [21]): 0 | Plant response rating, Rice (rice [2]; 500 g ai/ha, scale 0 to 100): 0 | Plant response rating, Rice (rice [2]; 1000 g ai/ha, scale 0 to 100): 0 | Plant response rating, Sedge, Umbrella (sedge, umbrella [3]; [14]): 0 | Plant response rating, Sedge, Umbrella (sedge, umbrella [3]; [21]): 0 | Plant response rating, Sedge, Umbrella (sedge, umbrella [3]; 500 g ai/ha, scale 0 to 100): 0 | Plant response rating, Sedge, Umbrella (sedge, umbrella [3]; 1000 g ai/ha, scale 0 to 100): 0 | Plant response rating, Morningglory (morningglory; [18]): 0 | Plant response rating, Barnyardgrass (barnyardgrass [5]; [14]): 10 | Plant response rating, Barnyardgrass (barnyardgrass [5]; [21]): 30 | Plant response rating, Barnyardgrass (barnyardgrass [5]; 500 g ai/ha, scale 0 to 100): 60 | Plant response rating, Barnyardgrass (barnyardgrass [5]; 1000 g ai/ha, scale 0 to 100): 80 | Plant response rating, Ducksalad (ducksalad [6]; [14]): 75 | Plant response rating, Ducksalad (ducksalad [6]; [21]): 85 | Plant response rating, Ducksalad (ducksalad [6]; 500 g ai/ha, scale 0 to 100): 100 | Plant response rating, Ducksalad (ducksalad [6]; 1000 g ai/ha, scale 0 to 100): 100 | Plant response rating, Ryegrass, Italian (ryegrass, Italian; [11]): 20 | Plant response rating, Ryegrass, Italian (ryegrass, Italian; [16]): 0 | Plant response rating, Ryegrass, Italian (ryegrass, Italian; [17]): 0 | Plant response rating, Galium (galium; [19]): 20 | Plant response rating, Galium (galium; [20]): 50 | Plant response rating, Wheat (wheat; [18]): 0 | Plant response rating, Wheat (wheat; [11]): 20 | Plant response rating, Barnyardgrass (barnyardgrass [9]; [15]): 90 | Plant response rating, Barnyardgrass (barnyardgrass [9]; [11]): 90 | Plant response rating, Barnyardgrass (barnyardgrass [9]; [16]): 60 | Plant response rating, Barnyardgrass (barnyardgrass [9]; [17]): 90
